The target in experiment [1] is Ribosomal protein S6 kinase beta-1 (Homo sapiens, UniProt P23443, T412E). The experiment in a line: p70S6K Enzyme Assay: p70S6K inhibitor compounds were diluted and plated in 96 well plates. A reaction mixture including the following components were then added to the compound plate to initiate the enzyme reaction: p70S6K (3 nM, T412E mutant, Millipore) was mixed with 24 μM ATP in an assay buffer containing 100 mM Hepes (pH 7.5), 5 mM MgCl2, 1 mM DTT, 0.015% Brij and 1 μM of the substrate peptide FITC-AHA-[…]-OH (derived from the S6 ribosomal protein sequence, FITC=fluorescein isothiocyanate, AHA=6-aminohexanoic acid). The reaction was incubated for 90 min at 25° C., before the addition of 10 mM EDTA to stop the reaction. The proportion of substrate and product (phosphorylated) peptide was analyzed on a Caliper Life Sciences Lab Chip 3000, using a pressure of −1.4 psi, and upstream and downstream voltages of −3000 and −700, respectively. Product peaks were resolved before substrate peaks on the resulting chromatograms. To assess the inhibitory potential of the compounds, IC50 values were determined, as shown above.

Experiment [2] deals with RAC-alpha serine/threonine-protein kinase (Homo sapiens, UniProt P31749). The experiment in a line: AKT/PKB Kinase Assay: In order to measure AKT inhibition in the Caliper Life Sciences LC3000, a TTP Mosquito liquid handling instrument was used to place 125 nl of the appropriate concentration of inhibitor in 100% DMSO (for a dose response curve calculation) into each well of a 384-well plate. To this reaction, the following components were added to a final volume of 12.5 μl: 0.1 ng/μl His-AKT (Full Length) (Invitrogen, Part # P2999, Lot #641228C); 160 μM ATP (Fluka, 02055); 1 mM DTT (Sigma, D0632); 1 mM MgCl2 (Sigma, M1028); 1 μM substrate peptide (sequence FITC-AHA-[…]-NH2), synthesized by Tufts Peptide Synthesis service; 100 mM HEPES pH 7.5 (Calbiochem, 391338); and 0.015% Brij-35 (Sigma, B4184).The reaction was incubated for 90 min at 25° C., and then stopped by the addition of 70 μl of Stop buffer (100 mM HEPES pH 7.5, 0.015% Brij-35, 10 mM EDTA (Sigma, E7889)). The plate was read on a Caliper LC 3000 in an Off-Chip mobility shift assay format, using the following parameters for a 12-sipper chip: screening pressure −2.3 psi, upstream voltage −500, and downstream voltage −3000. These conditions cause unphosphorylated substrate and phosphorylated product peptide to resolve as separate peaks allowing direct measurement of percentage of conversion of substrate to product. The percent conversion was plotted against concentration of inhibitor to produce a sigmoidal dose response curve, from which an IC50 was calculated.

This is an account of results in ChEMBL document CHEMBL5726747, “Substituted pyrido[3,4-d]pyrimidines and pyrido[4,3-d]pyrimidines as p70S6K inhibitors” (2019).

Each structure is given as a SMILES string.

By IC50 is commonly meant the point on the concentration scale where inhibition reaches its midpoint.

Sequence of RAC-alpha serine/threonine-protein kinase (P31749 whole entry): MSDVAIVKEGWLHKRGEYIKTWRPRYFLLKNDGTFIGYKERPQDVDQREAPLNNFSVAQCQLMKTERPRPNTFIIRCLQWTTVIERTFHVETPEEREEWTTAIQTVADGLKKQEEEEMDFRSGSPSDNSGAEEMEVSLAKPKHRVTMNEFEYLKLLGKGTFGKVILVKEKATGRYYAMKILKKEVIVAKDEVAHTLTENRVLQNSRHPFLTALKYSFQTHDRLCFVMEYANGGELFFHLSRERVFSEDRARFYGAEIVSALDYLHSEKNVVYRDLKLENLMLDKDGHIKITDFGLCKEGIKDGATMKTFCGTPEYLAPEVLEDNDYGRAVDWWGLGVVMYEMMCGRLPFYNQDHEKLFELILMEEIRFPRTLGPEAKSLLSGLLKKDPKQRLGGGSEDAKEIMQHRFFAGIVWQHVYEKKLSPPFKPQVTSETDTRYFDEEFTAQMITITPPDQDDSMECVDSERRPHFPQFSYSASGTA
Sequence of Ribosomal protein S6 kinase beta-1 (P23443 whole entry T412E): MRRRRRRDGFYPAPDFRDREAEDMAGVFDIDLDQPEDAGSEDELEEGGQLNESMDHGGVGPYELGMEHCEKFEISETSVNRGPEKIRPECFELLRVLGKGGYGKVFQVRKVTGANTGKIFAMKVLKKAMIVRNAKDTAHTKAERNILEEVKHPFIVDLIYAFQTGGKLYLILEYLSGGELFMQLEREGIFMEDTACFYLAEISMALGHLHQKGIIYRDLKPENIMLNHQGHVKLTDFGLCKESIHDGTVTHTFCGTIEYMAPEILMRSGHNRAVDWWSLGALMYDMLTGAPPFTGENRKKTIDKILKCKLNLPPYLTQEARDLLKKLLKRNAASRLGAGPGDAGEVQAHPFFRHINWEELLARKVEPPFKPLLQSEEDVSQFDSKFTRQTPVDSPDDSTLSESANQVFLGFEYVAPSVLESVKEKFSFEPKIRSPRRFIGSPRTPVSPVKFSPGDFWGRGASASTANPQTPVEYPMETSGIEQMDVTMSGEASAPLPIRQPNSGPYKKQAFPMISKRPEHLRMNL

As for `N#Cc1ccc([C@@H](CN2CCC2)Nc2ncnc3c(C(N)=O)ccnc23)cc1Cl`, the concentration for half-maximal inhibition (IC50) in experiment [1] and in experiment [2] was less than 25 nM throughout. As to `CCNC[C@@H](Nc1ncnc2c(C(N)=O)ccnc12)c1ccc(F)c(Br)c1`, the IC50 in experiment [1] is less than 25 nM. In the case of `NC(=O)c1ccnc2c(N[C@H](CN3CCC3)c3ccc(F)c(C(F)(F)F)c3)ncnc12`, the IC50 in experiment [1] and in experiment [2] was less than 25 nM throughout. As for `NC(=O)c1ccnc2c(N[C@H](CN3CCC3)c3ccc(F)c(C(F)F)c3)ncnc12`, the IC50 in experiment [1] and in experiment [2] was less than 25 nM each time. `CCNC[C@@H](Nc1ncnc2c(C(N)=O)ccnc12)c1ccc(F)c(Cl)c1`: the concentration for half-maximal inhibition (IC50) in experiment [1] is less than 25 nM.

As for `CN(C)C[C@@H](Nc1ncnc2c(C(N)=O)ccnc12)c1ccc(Cl)c(F)c1`, the IC50 in experiment [1] was less than 25 nM. Regarding `CNC[C@@H](Nc1ncnc2c(C(N)=O)ccnc12)c1ccc(F)c(Cl)c1`, the IC50 in experiment [1] and in experiment [2] was less than 25 nM throughout.
